Assay results reported in PubChem BioAssay (NCI).
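Following 48 hours of exposure in 96-well plates, responses at five concentrations were used to interpolate endpoints linearly. The concentration for full growth arrest is given as TGI.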

How the values were obtained:
Test in all cases: DTP human tumour cell line panel, 48 h
DU-145 prostate = test system: DU-145 prostate
PC-3 prostate = test system: PC-3 prostate
CAKI-1 renal = test system: CAKI-1 renal
786-0 renal = test system: 786-0 renal
A498 renal = test system: A498 renal
UO-31 renal = test system: UO-31 renal
M14 melanoma = test system: M14 melanoma
HL-60(TB) leukemia = test system: HL-60(TB) leukemia
NCI-H226 lung = test system: NCI-H226 lung
MCF7 breast = test system: MCF7 breast
NCI-H522 lung = test system: NCI-H522 lung
HS 578T breast = test system: HS 578T breast
SK-MEL-28 melanoma = test system: SK-MEL-28 melanoma
OVCAR-3 ovarian = test system: OVCAR-3 ovarian
RXF 393 renal = test system: RXF 393 renal
SNB-19 CNS = test system: SNB-19 CNS
K-562 leukemia = test system: K-562 leukemia
MALME-3M melanoma = test system: MALME-3M melanoma
MDA-N = test system: MDA-N
EKVX NSCLC = test system: EKVX NSCLC
NCI/ADR-RES ovarian = test system: NCI/ADR-RES ovarian
BT-549 breast = test system: BT-549 breast
UACC-62 melanoma = test system: UACC-62 melanoma
SK-MEL-2 melanoma = test system: SK-MEL-2 melanoma
HOP-92 NSCLC = test system: HOP-92 NSCLC
NCI-H460 lung = test system: NCI-H460 lung
UACC-257 melanoma = test system: UACC-257 melanoma
SNB-75 CNS = test system: SNB-75 CNS
T-47D breast = test system: T-47D breast
OVCAR-4 ovarian = test system: OVCAR-4 ovarian
MDA-MB-231 breast = test system: MDA-MB-231 breast
SF-295 CNS = test system: SF-295 CNS
NCI-H23 lung = test system: NCI-H23 lung
HCT-116 colon = test system: HCT-116 colon
IGROV1 ovarian = test system: IGROV1 ovarian
OVCAR-5 ovarian = test system: OVCAR-5 ovarian
A549 NSCLC = test system: A549 NSCLC
KM12 colon = test system: KM12 colon
HOP-62 NSCLC = test system: HOP-62 NSCLC
SF-268 CNS = test system: SF-268 CNS
COLO 205 colon = test system: COLO 205 colon
SK-OV-3 ovarian = test system: SK-OV-3 ovarian
HCC-2998 colon = test system: HCC-2998 colon
HCT-15 colon = test system: HCT-15 colon
ACHN renal = test system: ACHN renal
U251 CNS = test system: U251 CNS
TK-10 renal = test system: TK-10 renal
MDA-MB-435 = test system: MDA-MB-435
SW-620 colon = test system: SW-620 colon
SN12C renal = test system: SN12C renal
OVCAR-8 ovarian = test system: OVCAR-8 ovarian
SK-MEL-5 melanoma = test system: SK-MEL-5 melanoma
LOX IMVI melanoma = test system: LOX IMVI melanoma
CCRF-CEM leukemia = test system: CCRF-CEM leukemia
MOLT-4 leukemia = test system: MOLT-4 leukemia
RPMI-8226 leukemia = test system: RPMI-8226 leukemia
SR leukemia = test system: SR leukemia
HT29 colon = test system: HT29 colon

For COC(=O)/C=C\C(C#N)(C#N)N=Cc1ccc(Br)s1, the TGI (DU-145 prostate) was 24.5 µM, the TGI (PC-3 prostate) was 26.8 µM and the TGI (CAKI-1 renal) was 5.94 µM. The TGI (786-0 renal) was 12.9 µM, the TGI (A498 renal) was 31.5 µM and the TGI (UO-31 renal) was 7.18 µM. It also gave a TGI (M14 melanoma) of 8.86 µM, a TGI (HL-60(TB) leukemia) of 5.04 µM and a TGI (NCI-H226 lung) of 12.4 µM. The TGI (MCF7 breast) was 6.1 µM, the TGI (NCI-H522 lung) was 3.33 µM and the TGI (HS 578T breast) was over 85.5 µM. It also gave a TGI (SK-MEL-28 melanoma) of 33.7 µM, a TGI (OVCAR-3 ovarian) of 23.3 µM and a TGI (RXF 393 renal) of 4.87 µM. The TGI (SNB-19 CNS) was 21.9 µM, the TGI (K-562 leukemia) was over 100 µM and the TGI (MALME-3M melanoma) was 4.27 µM. For the same compound, the TGI (MDA-N) was 24.4 µM, the TGI (EKVX NSCLC) was 26.4 µM and the TGI (NCI/ADR-RES ovarian) was 45.2 µM. It also gave a TGI (BT-549 breast) of 16.8 µM, a TGI (UACC-62 melanoma) of 24.9 µM and a TGI (SK-MEL-2 melanoma) of 33.2 µM. The TGI (HOP-92 NSCLC) was 4.67 µM, the TGI (NCI-H460 lung) was 48 µM and the TGI (UACC-257 melanoma) was 28.6 µM. For the same compound, the TGI (SNB-75 CNS) was 29.4 µM, the TGI (T-47D breast) was over 30.6 µM and the TGI (OVCAR-4 ovarian) was 16.3 µM. It also gave a TGI (MDA-MB-231 breast) of 4.51 µM, a TGI (SF-295 CNS) of 33 µM and a TGI (NCI-H23 lung) of 46.9 µM. For the same compound, the TGI (HCT-116 colon) was 34.8 µM, the TGI (IGROV1 ovarian) was 31.9 µM and the TGI (OVCAR-5 ovarian) was 31.5 µM. It also gave a TGI (A549 NSCLC) of 45.4 µM, a TGI (KM12 colon) of 32.6 µM and a TGI (HOP-62 NSCLC) of 31.8 µM. For the same compound, the TGI (SF-268 CNS) was 40.2 µM, the TGI (COLO 205 colon) was 6.02 µM and the TGI (SK-OV-3 ovarian) was 33.4 µM. It also gave a TGI (HCC-2998 colon) of 34.4 µM, a TGI (HCT-15 colon) of 6.63 µM and a TGI (ACHN renal) of 6.1 µM. It also gave a TGI (U251 CNS) of 38 µM, a TGI (TK-10 renal) of 6.65 µM and a TGI (MDA-MB-435) of 13.9 µM. The TGI (SW-620 colon) was 5.53 µM, the TGI (SN12C renal) was 35.1 µM and the TGI (OVCAR-8 ovarian) was 19.1 µM. The TGI (SK-MEL-5 melanoma) was 27.4 µM, the TGI (LOX IMVI melanoma) was 7.39 µM and the TGI (CCRF-CEM leukemia) was 5.5 µM. For the same compound, the TGI (MOLT-4 leukemia) was over 100 µM and the TGI (RPMI-8226 leukemia) was 7.11 µM.
C=CCNS(=O)(=O)c1ncnc2nc[nH]c12 showed a TGI (DU-145 prostate) of over 100 µM, a TGI (PC-3 prostate) of over 100 µM and a TGI (CAKI-1 renal) of over 100 µM. For the same compound, the TGI (786-0 renal) was over 100 µM, the TGI (A498 renal) was over 100 µM and the TGI (UO-31 renal) was over 100 µM. It also gave a TGI (M14 melanoma) of over 100 µM, a TGI (NCI-H226 lung) of over 100 µM and a TGI (MCF7 breast) of over 100 µM. The TGI (NCI-H522 lung) was over 100 µM, the TGI (HS 578T breast) was over 100 µM and the TGI (SK-MEL-28 melanoma) was over 100 µM. For the same compound, the TGI (OVCAR-3 ovarian) was over 100 µM, the TGI (RXF 393 renal) was over 100 µM and the TGI (SNB-19 CNS) was over 100 µM. It also gave a TGI (K-562 leukemia) of over 100 µM, a TGI (MALME-3M melanoma) of over 100 µM and a TGI (MDA-N) of over 100 µM. The TGI (EKVX NSCLC) was over 100 µM, the TGI (NCI/ADR-RES ovarian) was over 100 µM and the TGI (SR leukemia) was over 100 µM. The TGI (BT-549 breast) was over 100 µM, the TGI (UACC-62 melanoma) was over 100 µM and the TGI (SK-MEL-2 melanoma) was over 100 µM. The TGI (HOP-92 NSCLC) was over 100 µM, the TGI (UACC-257 melanoma) was over 100 µM and the TGI (SNB-75 CNS) was over 100 µM. For the same compound, the TGI (T-47D breast) was over 100 µM, the TGI (OVCAR-4 ovarian) was over 100 µM and the TGI (MDA-MB-231 breast) was over 100 µM. For the same compound, the TGI (SF-295 CNS) was over 100 µM, the TGI (NCI-H23 lung) was over 100 µM and the TGI (HCT-116 colon) was over 100 µM. It also gave a TGI (IGROV1 ovarian) of over 100 µM, a TGI (OVCAR-5 ovarian) of over 100 µM and a TGI (A549 NSCLC) of over 100 µM. For the same compound, the TGI (KM12 colon) was over 100 µM, the TGI (HOP-62 NSCLC) was over 100 µM and the TGI (COLO 205 colon) was over 100 µM. The TGI (SK-OV-3 ovarian) was over 100 µM, the TGI (HCT-15 colon) was over 100 µM and the TGI (ACHN renal) was over 100 µM. The TGI (U251 CNS) was over 100 µM, the TGI (TK-10 renal) was over 100 µM and the TGI (MDA-MB-435) was over 100 µM. The TGI (SW-620 colon) was over 100 µM, the TGI (HT29 colon) was over 100 µM and the TGI (SN12C renal) was over 100 µM. For the same compound, the TGI (OVCAR-8 ovarian) was over 100 µM, the TGI (SK-MEL-5 melanoma) was over 100 µM and the TGI (LOX IMVI melanoma) was over 100 µM. The TGI (CCRF-CEM leukemia) was over 100 µM, the TGI (MOLT-4 leukemia) was 41.2 µM and the TGI (RPMI-8226 leukemia) was over 100 µM.
